Holding throughout (type): cell-based
For test [1], the system named is H460 cells. The test is described as follows: Cisplatin dose response, H460. The procedure: (§1) Cisplatin screen. Optimal cisplatin working concentrations were established via dose response and cell doubling time. In the dose response, 3,000 A549 and H460 cells were plated in 96-well plates and treated with a range of cisplatin concentrations. After 72 h, CellTiter-Glo 2.0 (Promega, cat. no. G9242) was added to the media (1:1), and luminescence was recorded. For the cell doubling time, 1M cells were plated in 10 cm plates. Different cisplatin concentrations were added at indicated concentrations, and living cells counted every 2-3 days up to 14 days. Cisplatin survival screen: 48M and 96M cells were plated at TO and treated with 6.5 μM and 25 μM of Cisplatin for A549 cells and 2 μM and 10 μM for H460 cells, corresponding to IC30 and IC80, respectively. Cell pellets were collected after 14 and 21 days. The death screen was carried out as follows: 144M cells were seeded and treated with cisplatin at 2 μM and 1 μM (IC20) for A549 and H460, respectively. Every 24 h, for five days, floating (dead) cells were collected and pooled together for gDNA extraction.

In test [2] the test system is Tier II genes. The test is described as follows: Tier II genes' expression following cisplatin treatment.
The test system of test [3] is A549 cells. The test is described as follows: Cisplatin dose response, A549. The procedure:
as §1

Structures are written as SMILES.

What is called IC20 is the point of the concentration-response curve where the effect stands at 20%. Read a low IC20 as an effect from little substance. One may read the IC30 as the concentration at which the effect reaches the 30% level. A low value points to greater potency. What is called IC80 is the point of the concentration-response curve where the effect stands at 80%. A lower IC80 goes with greater potency. Take `N.N.[Cl][Pt][Cl]` [Cisplatin, cisplatin]: in test [1], the IC20 stood at 1 µM, the IC30 is 2 µM and the IC80 was 10 µM. Further, in test [2], the “Tier II genes' expression” value is “upregulation”. In test [3], this compound had an IC20 of 2 µM, an IC30 of 6.5 µM and an IC80 of 25 µM.
